Laboratory results reported in US20030130484A1, “Inhibitors and disassemblers of fibrillogenesis” (priority 2001, published 2003).

What was measured:
Aβ40 = Aβ40 (Homo sapiens, UniProt P05067); experiment: Inhibition of Aβ40 fibrillogenesis, thioflavin T fluorescence assay; format: biochemical
PrP106-126 = PrP106-126 (Homo sapiens, UniProt P04156); format: biochemical
Calcein leakage assay = format: in vitro ADME; design: calcein escaped from the vesicles: dose or concentration left out as unconfirmed
Procedure: The leakage of vesicle contents was monitored by measuring the release of calcein (Terzi et al., 1995 and Pillot et al, 1996). Vesicles were prepared and separated from free calcein as described above for the radioactive compounds, except that the rehydration buffer contained […] calcein and 10 mM Na-EDTA. In the kinetic assay, peptide was added to the vesicle solution and the fluorescence was measured at ten minute intervals with excitation and emission wavelengths of 490 and 520 nm, respectively. Data were fit to an equation for a first order rate process. For the concentration dependence assay, different amounts of peptide were added to the vesicle solution and the fluorescence was measured after a two hour incubation at 37° C. The maximum leakage was determined by lysing the vesicles with the addition of 0.5% (w/v) Triton X-100.
The leakage of vesicle contents was monitored by measuring the release of calcein (Terzi et al., 1995; Pillot et al., 1996). Vesicles were prepared and separated from free calcein as described herein for the radioactive compounds, except that the rehydration buffer contained 40 mM calcein and 1 mM Na-EDTA. […] The maximum fluorescence was measured by lysing the vesicles with the addition of 0.1% (w/v) Triton X-100.

[1] = Circular dichroism under denaturing conditions (urea, pH, GuHCl, temperature); format: physicochemical; conditions: pH 2.5-10.5, 8M GuHCl, 20° and 70° C.
Procedure: (§1) A 1 mm or 0.1 mm pathlength cell was used for measurements, depending on the concentration of the solution. Six to eight scans were acquired from 250 nm to 200 nm. For the pH experiment, a 100 mM phosphate-citrate buffer was used for pH 2.5-6.5, a 100 mM phosphate buffer was used for pH 7.5-8.5 and a 100 mM glycine-NaOH buffer was used for pH 9.5-10.5.
as §1, with “The circular dichroic (CD) spectra were recorded using a Jasco P715 spectropolarimeter. […] A” for “A”, “9.5-10.5. For the urea denaturation experiment, Ad 16-20m was dissolved in 100 mM phosphate buffer pH 7.4 with 0-8.5 M urea.” for “9.5-10.5.”

Aβ40 fibrils = Aβ40 fibrils (Homo sapiens, UniProt P05067)
[2] = Solubility in aqueous media and organic solvents

Sequence of PrP106-126 (P04156 106-126 limits assumed): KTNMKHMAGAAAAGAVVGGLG
Sequence of Aβ40 (P05067 672-711): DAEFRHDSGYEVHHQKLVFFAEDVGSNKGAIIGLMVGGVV
Sequence of Aβ40 fibrils (P05067 672-711): as above

CC(=O)N[C@@H](CCCCN)C(=O)N(C)[C@@H](CC(C)C)C(=O)N[C@H](C(=O)N(C)[C@@H](Cc1ccccc1)C(=O)N[C@@H](Cc1ccccc1)C(N)=O)C(C)C [Aβ16-20m, Ac—NH—K(me-L)V(me-F)F—CONH2]
effect on Aβ40 fibril formation (in words) (Aβ40): highly effective inhibitor
inhibition of fibril formation by PrP106-126 (PrP106-126): ineffective
leakage of calcein from vesicles (in words) (Calcein leakage assay): causes the leakage of calcein
calcein escaped from the vesicles (Calcein leakage assay; highest concentration tested): 82%
calcein efflux (Calcein leakage assay; low micromolar concentrations of peptide): less than 10%
stability of peptide structure by CD (mean residue ellipticity at 226 nm) [1]: extremely stable and resistant to chemical denaturation
half-life (Aβ40 fibrils): 24 ± 7 min
solubility [2]: ≥ 30 mM
solubility in aqueous media (in words) [2]: highly soluble in aqueous media
solubility in organic solvents (in words) ([2]; DMF, diethyl ether, methylene chloride, chloroform): highly soluble
